Measurements taken from patent US11571427B2, “Targeting the CBM signalosome complex induces regulatory T cells to inflame the tumor microenvironment” (THE GENERAL HOSPITAL CORPORATION, priority 2017, dated 2023).

Tests used:
tumor-infiltrating Treg = assay: In situ effector cytokine expression and frequency of tumor-infiltrating Treg (flow cytometry); type: in vivo, mice; details: within 3 days of mepazine, FIG. 14K
Procedure: (§1) Preparation of single cell suspensions, antibody staining and flow cytometry. Heparinized peripheral blood collected through sub-mandibular vein puncture was treated with ACK red blood cell lysis buffer. LNs and spleens were passed through 40 μm cell strainers, followed by red blood cell lysis (spleens only). Tumors were minced into small fragments and treated with 1.5 mg/ml collagenase IV and 50 U/ml DNAse I for 30 min. at 37° C. under agitation.
Intracellular and nuclear proteins were stained for 60 minutes at room temperature after permeabilization and fixation (Mouse regulatory T cell staining Kit; eBioscience) using antibodies against: CD152/CTLA-4-(UC10-4B9), TNF (MP6-XT22), IL-4 (11B11), IL-17A (TC11-18H10.1), IFNγ (XMG1.2), and Ki67 (16A8) (BD Biosciences), BIM (C34C5), CARD11/CARMA1 (1D12) (Cell Signaling), Foxp3 (FJK-16s, eBioscience), GFP (rabbit polyclonal, Invitrogen). Polyclonal goat α-rabbit Ig (H+L) secondary antibody (Life Technologies) was used to reveal primary α-CARMA1 staining.
(§2) Preceding antibody staining, Fc receptors were blocked with TruStain fcX (Biolegend) for 20 minutes at 4° C., followed by dead cells staining using the fixable viability violet dye […] (Biolegend) for 15 minutes at room temperature. Cells were analyzed on LSRII, LSRFortessa or LSRFortessa X-20 flow cytometers (BD Biosciences), and data were analyzed with FlowJo software version 9.9.5.
Analysis of in situ and ex vivo stimulated cytokine secretion. To detect in situ cytokine secretion, mice were slowly i.v. injected with 500 μg of fully dissolved Brefeldin A in 250 μl PBS 6 h before sacrifice and intracellular cytokine staining.

D4M.3A melanoma [1] = assay: D4M.3A tumor growth in F^Cre/+×C1^+/+ or f/f mice treated with Mepazine or vehicle; type: in vivo; details: Mepazine from day 9, FIG. 13C
Procedure: FIGS. 13A-13K. (FIG. 13A), MHC II expression on tumor-associated macrophages in D4M.3A-implanted F^Cre/+×C1^++, f/+ or f/f mice. (FIG. 13B), D4M.3A tumor growth in mice treated with depleting αCD8 Ab from day 8 and treated with mepazine or not from day 9. (FIG. 13C), D4M.3A tumor growth in F^Cre/+×C1^+/+ or f/f mice treated with Mepazine or vehicle starting on day 9. (FIG. 13D), YFP^+ Treg were sorted from F^Cre×C1^+/+ mice and treated with 10 μM Mepazine of vehicle for 8 or 24 hours with or without concurrent αCD3/28 mAb TCR stimulation (8 h time-point only) and expression of Foxp3, markers of eTreg differentiation, cell viability, and frequency of eTreg were recorded. (FIG. 13E), RT-qPCR analysis of expression of Foxp3 and various Treg-associated genes in whole tumor tissue lysate following 3 days of Mepazine or vehicle treatment. (FIGS. 13F-13J), Composition of the tumor tissue immune infiltrate and frequencies of CD45^+ cells (FIG. 13G) and of various immune cell subsets (FIG. 13H) as well Ki67 expression by Tconv (FIG. 13I) and MHC II expression by macrophages (FIG. 13J) following 3 days of Mepazine or vehicle treatment. […]
Tumor growth studies and treatments. […] Tumor volumes were measured every second to third day after start of treatments and calculated as V=(length×width^2)/2. […]

[2] = system: tumor tissue immune infiltrate; assay: Composition of the tumor tissue immune infiltrate; type: in vivo, mice; details: 3 days of Mepazine or vehicle; FIGS. 13F-13J
Procedure: (§3) FIGS. 13A-13K. (FIG. 13A), MHC II expression on tumor-associated macrophages in D4M.3A-implanted F^Cre/+×C1^++, f/+ or f/f mice. (FIG. 13B), D4M.3A tumor growth in mice treated with depleting αCD8 Ab from day 8 and treated with mepazine or not from day 9. (FIG. 13C), D4M.3A tumor growth in F^Cre/+×C1^+/+ or f/f mice treated with Mepazine or vehicle starting on day 9. (FIG. 13D), YFP^+ Treg were sorted from F^Cre×C1^+/+ mice and treated with 10 μM Mepazine of vehicle for 8 or 24 hours with or without concurrent αCD3/28 mAb TCR stimulation (8 h time-point only) and expression of Foxp3, markers of eTreg differentiation, cell viability, and frequency of eTreg were recorded. (FIG. 13E), RT-qPCR analysis of expression of Foxp3 and various Treg-associated genes in whole tumor tissue lysate following 3 days of Mepazine or vehicle treatment. (FIGS. 13F-13J), Composition of the tumor tissue immune infiltrate and frequencies of CD45^+ cells (FIG. 13G) and of various immune cell subsets (FIG. 13H) as well Ki67 expression by Tconv (FIG. 13I) and MHC II expression by macrophages (FIG. 13J) following 3 days of Mepazine or vehicle treatment. (FIG. 13K), Effector cytokine co-expression by tumor-infiltrating Treg following 12 days Mepazine and αPD-1 Ab treatment. *=p<0.05, **=p<0.01, and ***=p<0.001. *, #=any p<0.05 vs. C1^+/+ and C1^+/++ Mepazine, resp. in FIG. 13C.
as §1, with “Tumors were minced into small fragments and treated with 1.5 mg/ml collagenase IV and 50 U/ml DNAse I for 30 min. at 37° C. under agitation.” left out
as §2

Treg = assay: In vitro treatment of sorted YFP+ Treg with Mepazine; type: cell-based, mice; details: 10 μM Mepazine
Procedure: as §3

D4M.3A melanoma [3] = assay: D4M.3A tumor growth in RAG1-deficient hosts; type: in vivo, mice; details: hosts lack lymphocytes, FIG. 4D
Text: Mice. Foxp3YFP-Cre (Ref. 1), Foxp3GFP-Cre-ERT2 (Ref 2), Rosa26YFP (Ref. 4), Ifng KO (Ref.5) and C57BL/6/J mice were purchased from Jackson laboratories. […] and James J. […] Animals were housed in specific pathogen-free facilities at the Massachusetts General Hospital (MGH) and all experimental studies were approved and performed in accordance with guidelines and regulations implemented by the MGH Institutional Animal Care and Use Committee (IACUC). For survival studies the age of mice at euthanasia mandated by a moribund state of health was recorded in Kaplan Meyer plots. […] Wherever possible, animals were randomized into treatment groups. Tumor volumes were measured every second to third day after start of treatments and calculated as V=(length×width^2)/2.

whole tumor tissue = assay: Gene expression in whole tumor tissue (RT-qPCR); type: in vivo, mice
Procedure: Quantitative RT-PCR. For analysis of gene expression, RNA was isolated (AllPrep, DNA/RNA Mini kit; Qiagen) from CD4+ GFP+ Treg sorted to >99% purity from tdFNs and tumors, or from homogenized tumor tissue, and reverse transcribed using iScript cDNA Synthesis Kit (Bio-RAD). Quantitative RT-PCR was performed using iQ SYBR green supermix (Bio-RAD) and primers: […]
Results were expressed as 2-ΔCT relative to the house keeping gene GAPDH.

D4M.3A tumor cells = assay: MHC I and PD-L1 expression on tumor cells after mepazine treatment; type: in vivo, mice; details: within 3 days of mepazine; FIG. 4E
Procedure: (FIG. 4A) Female Foxp3^GFP-CreERT2×CARMA1^+/+ and ×CARMA1^1111 mice were implanted with D4M.3A melanoma and starting on day 9 treated with tamoxifen until the end of the experiment as well as with three doses of 200 μg of the blocking α-PD-1 antibody 29F.1A12 or isotype control antibody, and tumor growth was recorded. […] (FIGS. 4C and 4D) D4M.3A tumor growth in C57BL/6 (FIG. 4C) or RAG1-deficient hosts (FIG. 4D) treated with MALT1 inhibitors mepazine or MI-2. (FIGS. 4E-4G) Mepazine effects within 3 days on MHC I and PD-L1 expression on tumor cells (FIG. 4E), expression of genes of adaptive immune resistance (Pdl1, Socs1), MHC I antigen presentation (Tap1), IFNγ-signaling (Stat1, Irf1), T cell recruitment (CXCL10), M1 macrophage activation (Nos2), and cytotoxicity (Gzmb) (FIG. 4F), as well as the frequency of CD4^+ and CD8^+ T cells (FIG. 4G). […] All graphs show means and either individual replicates or ±SEM.
Preparation of single cell suspensions, antibody staining and flow cytometry. […]
Preceding antibody staining, Fc receptors were blocked with TruStain fcX (Biolegend) for 20 minutes at 4° C., followed by dead cells staining using the fixable viability violet dye Zombie Red (Biolegend) for 15 minutes at room temperature. Cells were analyzed on LSRII, LSRFortessa or LSRFortessa X-20 flow cytometers (BD Biosciences), and data were analyzed with FlowJo software version 9.9.5.

Row | Structure (SMILES) | IFNγ-expression by tumor-infiltrating Treg (tumor-infiltrating Treg; in situ) | TNF-expression by tumor-infiltrating Treg (tumor-infiltrating Treg; in situ) | Treg frequency in tumor (tumor-infiltrating Treg) | addition to anti-tumor effect of CARMA1-deletion in Treg (D4M.3A melanoma [1]) | frequency of CTL in tumor tissue [2] | frequency of NK cells in tumor tissue [2] | immune cell infiltration of tumor tissue [2] | Foxp3 expression of Treg in vitro (Treg; 8 or 24 hours, FIG. 13D) | GITR expression of Treg in vitro (Treg; 8 or 24 hours, FIG. 13D) | effector cytokine expression of Treg in vitro (Treg; not shown) | tumor growth in Rag1-deficient mice (D4M.3A melanoma [3]) | expression of Treg-associated genes in tumor tissue (whole tumor tissue; 3 days of Mepazine or vehicle, FIG. 13E) | IFN-γ-regulated genes in whole tumor tissue (whole tumor tissue; 3 days of mepazine) | MHC I expression on tumor cells (D4M.3A tumor cells) | PD-L1-expression on tumor cells (D4M.3A tumor cells)
1 | CN1CCCC(CN2c3ccccc3Sc3ccccc32)C1 (stereo not shown) [mepazine] | rapid induction | rapid induction | did not reduce Treg frequency | did not add to the anti-tumor effect of CARMA1-deletion in Treg | increased | increased | generally enhanced | only a minor reduction | only a minor reduction | no effector cytokine expression | no effect on tumor growth | not altered | induction of a wide range of IFN-γ-regulated genes | up-regulation | up-regulation
2 | COCCOc1nc(-c2ccc(Cl)c(Cl)c2)n(-c2ccc(NC(=O)CCl)cc2)n1 [MI-2] | – | – | – | – | – | – | – | – | – | – | no effect on tumor growth | – | – | – | –
